Measured values: patent US11638716B2, “Compounds, compositions, and methods for the treatment of disease” (F-star Therapeutics, Inc., priority 2017, dated 2023)

Assays:
Type in all cases: cell-based
[1] = test system: IRF; assay: In vitro induction of IRF in THP1 dual cells (Lucia reporter, ISG54 promoter)
Experimental: (§1) Example 2. In Vitro Induction of IRF and NF-κβ in THP1 Cells
(§2) THP1 dual cells grown in complete media were treated with various concentrations of a compound of the present disclosure or DMSO control. Dual cells carry both secreted embryonic alkaline phosphatase (SEAP) reporter gene under the control of an IFN-β minimal promoter fused to five copies of the NF-kB consensus transcriptional response element to measure NF-kB activity and Lucia reporter gene under the control of an ISG54 minimal promoter to measure IRF activity. After 20 h incubation, IRF activity was assessed using QUANTI-luc to measure levels of Lucia and NF-kB activity was determined by measure SEAP levels at 620-655 nm. % induction was calculated from fold change in luminescence/absorbance compared to DMSO treated sample. […] EC50 values were generated by curve fit in Xlfit.
(§3) Cells grown in complete media were treated with various concentrations of a compound of the disclosure or DMSO control. Dual cells carry both secreted embryonic alkaline phosphatase (SEAP) reporter gene under the control of an IFN-β minimal promoter fused to five copies of the NF-kB consensus transcriptional response element to measure NF-kB activity and Lucia reporter gene under the control of an ISG54 minimal promoter to measure IRF activity. After 20 h incubation, IRF activity was assessed using QUANTI-luc to measure levels of Lucia and NF-kB activity was determined by measure SEAP levels at 620-655 nm. % induction was calculated from fold change in luminescence/absorbance compared to DMSO treated sample. EC50 values are generated by curve fit in Xlfit.

[2] = test system: NF-κβ; assay: In vitro induction of NF-κβ in THP1 dual cells (SEAP reporter)
Experimental: as §1, §2, §3

[3] = test system: STING KO cells; assay: IRF and NF-kB reporter activity in STING KO cells; settings: 20 hours
Experimental: (§4) FIG. 21 depicts cells stably expressing both or either one of the reporters to measure IRF and NF-kB activity were treated with a range of concentrations of compound 1 or DMSO control for 20 hours. IRF activity was assessed using QUANTI-luc to measure levels of Lucia and NF-kB activity was determined by measure SEAP levels at 620-655 nm. % induction was calculated from fold change in luminescence/absorbance compared to DMSO treated sample. EC50 values are generated by curve fit in Xlfit.
as §4, with “22” for “21”, “2” for “1”
as §4, with “24” for “21”, “3” for “1”
as §4, with “27” for “21”, “4” for “1”
as §3

[4] = test system: RAW-Lucia-ISG-STING KO cells; assay: IRF-type I IFN secreted luciferase in RAW-Lucia-ISG-STING KO cells; settings: compound alone, 19 hours
Experimental: FIG. 4 depicts RAW-Lucia-ISG-WT and RAW-Lucia-ISG-STING KO cells were stimulated with compound 2 or compound 4, alone for 19 hours. Activity of secreted luciferase (IRF-type I IFN activity) in cell culture supernatant was measured using Invivogen's Quanti-luc. Data is shown as fold induction over DMSO treated cells (mean±standard deviation of triplicate wells per stimulant). EC50 values were calculated using XLfit.

[5] = target: T1, wild type STING (Homo sapiens, UniProt Q86WV6, H232R); assay: IRF/NF-kB reporter cells, wild type STING; settings: 20 hours
T1 construct: expressed in transfected cells; host or cells: THP1-Dual-KI-STING-R232 (made from THP-Dual-STING KO cells)
Experimental: as §4, with “22” for “21”, “2” for “1”
as §4, with “24” for “21”, “3” for “1”
as §4, with “27” for “21”, “4” for “1”
(§5) Cells grown in complete media were treated with various concentrations of a compound of the disclosure or DMSO control. […] After 20 h incubation, IRF activity was assessed using QUANTI-luc to measure levels of Lucia and NF-kB activity was determined by measure SEAP levels at 620-655 nm. % induction was calculated from fold change in luminescence/absorbance compared to DMSO treated sample. […]

[6] = target: T2, R71H-G230A-R293Q (HAQ) variant of hSTING (Homo sapiens, UniProt Q86WV6, G230A/H232R/R293Q/R71H); assay: IRF/NF-kB reporter cells, STING HAQ variant; settings: 20 hours
T2 construct: THP1-Dual-WT cells express STING-HAQ variant; endogenous in cells; host or cells: THP1-Dual-WT cells
Experimental: as §4, with “22” for “21”, “2” for “1”
as §4, with “24” for “21”, “3” for “1”
as §4, with “27” for “21”, “4” for “1”
as §5

[7] = target: T3, wt-mSTING (Mus musculus, UniProt Q3TBT3); assay: IRF/NF-kB reporter cells, wt-mSTING; settings: 20 hours
T3 construct: endogenous in cells
T3 sequence (Q3TBT3 1-378): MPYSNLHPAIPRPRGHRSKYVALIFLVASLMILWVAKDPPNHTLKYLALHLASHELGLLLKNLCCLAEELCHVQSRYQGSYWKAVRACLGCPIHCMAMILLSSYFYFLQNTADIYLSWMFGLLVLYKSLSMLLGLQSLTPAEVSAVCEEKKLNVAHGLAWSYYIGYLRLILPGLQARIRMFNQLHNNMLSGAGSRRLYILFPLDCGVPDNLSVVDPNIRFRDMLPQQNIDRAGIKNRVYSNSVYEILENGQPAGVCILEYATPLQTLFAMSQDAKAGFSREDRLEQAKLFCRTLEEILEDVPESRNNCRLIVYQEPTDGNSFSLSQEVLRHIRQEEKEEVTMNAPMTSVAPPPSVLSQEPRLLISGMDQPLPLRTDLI
Experimental: as §4, with “22” for “21”, “2” for “1”
as §4, with “24” for “21”, “3” for “1”
as §4, with “27” for “21”, “4” for “1”
as §5

[8] = test system: mouse bone marrow derived dendritic cells (DCs) and macrophages; assay: ISG gene expression (Taqman) in mouse bone marrow derived dendritic cells and macrophages; settings: 20 hours
Experimental: FIG. 23 depicts cryopreserved mouse bone marrow derived dendritic cells (DCs) and macrophages treated with a range of concentrations of compound 2 or DMSO control for 20 hours. Cell pellets were harvested to collect total RNA. The gene expression levels of ISGs were measured by Taqman Assays.

[9] = Homo sapiens, THP-1, 20 h incubation

T2 sequence (Q86WV6 whole entry R71H/G230A/H232R/R293Q): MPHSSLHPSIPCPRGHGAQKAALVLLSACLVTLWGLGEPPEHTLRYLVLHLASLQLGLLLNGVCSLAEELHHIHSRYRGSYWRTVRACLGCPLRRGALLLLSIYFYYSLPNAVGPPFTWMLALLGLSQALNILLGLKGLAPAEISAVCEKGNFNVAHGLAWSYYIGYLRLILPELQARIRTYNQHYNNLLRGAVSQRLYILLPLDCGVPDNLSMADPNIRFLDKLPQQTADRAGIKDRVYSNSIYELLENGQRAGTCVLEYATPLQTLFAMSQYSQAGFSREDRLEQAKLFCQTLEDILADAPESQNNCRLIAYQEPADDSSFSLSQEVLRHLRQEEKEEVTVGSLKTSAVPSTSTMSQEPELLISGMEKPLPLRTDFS
T1 sequence (Q86WV6 whole entry H232R): as the sequence (Q86WV6 whole entry R71H/G230A/H232R/R293Q) above, with H71R, A230G, Q293R counted along it

SMILES	EC50 [1, 9]	EC50 [2, 9]	IRF activity in STING KO cells [3]	NF-κβ in STING KO cells [3]	STING dependence of activity [3]	EC50 ([1]; 20 h incubation)	EC50 ([2]; 20 h incubation)	IRF activity in STING KO cells [4]	activity against wild type STING [5]	activity against R71H-G230A-R293Q (HAQ) variant of hSTING [6]	activity against wt-mSTING [7]	ISG expression [8]
Nc1ncnc2c1ncn2[C@@H]1O[C@@H]2COP(=O)(O)O[C@H]3[C@@H](F)[C@H](n4ccc(=O)[nH]c4=O)O[C@@H]3COP(=O)(O)O[C@@H]1[C@@H]2F [Compound 1]	> 2000 nM	> 2000 nM	did not induce	did not induce	possess STING dependent activity	–	–	–	–	–	–	–
CCCCCCCCCCOc1ccc(C(=O)Oc2ccc(CSP3(=O)OC[C@H]4O[C@@H](n5cnc6c(N)ncnc65)[C@H](OP(=O)(O)OC[C@H]5O[C@@H](n6ccc(=O)[nH]c6=O)[C@H](F)[C@@H]5O3)[C@@H]4F)cc2)cc1 (some centres unmarked) [Compound 2]	–	–	did not induce	did not induce	–	< 50 nM	1000 to 2000 nM	Neither compound induced IRF activity	possess activity	possess activity	possess activity	induces ISG expression
